According to patent US20240368135A1 (VERTEX PHARMACEUTICALS INCORPORATED, priority 2021, published 2024):
Where two headings read alike, the source gives them in different places.

Biological target: human NaV 1.8 (Homo sapiens, UniProt Q9Y5Y9)
Assay: E-VIPR assay detecting and measuring NaV inhibition properties
Assay type: cell-based
Settings: HEK cells expressing truncated human NaV 1.8
Procedure, shortened: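 Membrane potential was followed by coumarin/oxonol FRET during electrical field stimulation of matrigel-seeded HEK cells carrying truncated human NaV1.8 plus KIR2.1. Dosing used 11 points, 3-fold steps, top 300 nM final, 0.625% DMSO, with or without 25% human serum.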

[1] = no human serum, read-out: IC50 in the E-VIPR Assay

Chain of human NaV 1.8 (Q9Y5Y9 126-399 limits assumed): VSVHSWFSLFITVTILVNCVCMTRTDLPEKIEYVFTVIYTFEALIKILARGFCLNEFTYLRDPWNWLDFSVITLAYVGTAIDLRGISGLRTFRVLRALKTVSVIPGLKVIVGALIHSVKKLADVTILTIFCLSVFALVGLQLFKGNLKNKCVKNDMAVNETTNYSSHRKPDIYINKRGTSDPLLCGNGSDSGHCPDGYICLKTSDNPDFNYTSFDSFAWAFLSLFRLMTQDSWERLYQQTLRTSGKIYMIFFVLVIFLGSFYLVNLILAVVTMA
Chain of human NaV 1.8 (Q9Y5Y9 660-890 limits assumed): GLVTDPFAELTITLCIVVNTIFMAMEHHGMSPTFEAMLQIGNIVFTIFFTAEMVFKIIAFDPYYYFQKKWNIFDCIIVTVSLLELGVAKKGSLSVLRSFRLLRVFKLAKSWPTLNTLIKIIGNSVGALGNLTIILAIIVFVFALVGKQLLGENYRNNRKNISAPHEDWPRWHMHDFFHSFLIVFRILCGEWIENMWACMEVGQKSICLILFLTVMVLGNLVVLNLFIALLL
Chain of human NaV 1.8 (Q9Y5Y9 1148-1722 limits assumed): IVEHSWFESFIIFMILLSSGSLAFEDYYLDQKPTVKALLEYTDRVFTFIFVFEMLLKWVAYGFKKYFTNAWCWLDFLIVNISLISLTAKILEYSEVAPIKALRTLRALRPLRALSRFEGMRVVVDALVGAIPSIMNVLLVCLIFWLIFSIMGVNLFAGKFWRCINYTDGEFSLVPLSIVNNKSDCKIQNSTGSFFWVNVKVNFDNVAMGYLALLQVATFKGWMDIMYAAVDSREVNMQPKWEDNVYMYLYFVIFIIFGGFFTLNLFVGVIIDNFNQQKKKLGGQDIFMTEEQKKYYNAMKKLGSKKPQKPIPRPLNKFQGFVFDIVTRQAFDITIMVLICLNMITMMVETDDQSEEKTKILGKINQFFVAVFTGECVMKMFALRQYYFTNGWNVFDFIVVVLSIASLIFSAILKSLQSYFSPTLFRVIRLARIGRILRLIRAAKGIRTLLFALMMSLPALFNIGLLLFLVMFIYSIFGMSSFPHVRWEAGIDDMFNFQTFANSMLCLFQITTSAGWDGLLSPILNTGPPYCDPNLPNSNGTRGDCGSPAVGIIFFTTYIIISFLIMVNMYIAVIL

Row | Compound | IC50 [1] | IC50 (in the presence of human serum (compound numbers followed by *), read-out: IC50 in the E-VIPR Assay, performed in the presence of human serum)
1 | Cc1nn(C(F)F)cc1NC(=O)[C@@H]1O[C@@](C)(C(F)(F)F)[C@@H](C)[C@H]1c1ccc(F)c(F)c1OC1CC(O)C1 (stereo partly drawn) [Compound 600, (2R,3S,4S,5R)-3-[3,4-difluoro-2-(3-hydroxycyclobutoxy)phenyl]-N-[1-(difluoromethyl)-3-methyl-pyrazol-4-yl]-4,5-dimethyl-5-(trifluoromethyl)tetrahydrofuran-2-carboxamide] | 10 to 100 nM | 
2 | CCS(=O)(=O)c1cc(NC(=O)C2OC(C)(C(F)(F)F)C(C)C2c2ccc(F)c(F)c2OC)ccn1 (single isomer, unassigned) [Compound 51, 3-(3,4-difluoro-2-methoxy-phenyl)-N-(2-ethylsulfonyl-4-pyridyl)-4,5-dimethyl-5-(trifluoromethyl)tetrahydrofuran-2-carboxamide] | < 10 nM | 
3 | C[C@H]1[C@@H](c2ccc(F)c(F)c2OCCO)[C@H](C(=O)Nc2cccnc2)O[C@@]1(C)C(F)(F)F [Compound 575, (2R,3S,4S,5R)-3-[3,4-difluoro-2-(2-hydroxyethoxy)phenyl]-4,5-dimethyl-N-(3-pyridyl)-5-(trifluoromethyl)tetrahydrofuran-2-carboxamide] | < 10 nM | 
4 | COc1c([C@H]2[C@H](C(=O)Nc3ccnc(C4COCCN4)c3)O[C@@](C)(C(F)(F)F)[C@H]2C)ccc(F)c1F (single isomer, unassigned) [Compound 342, rel-(2R*,3S*,4S*,5R*)-3-(3,4-difluoro-2-methoxyphenyl)-4,5-dimethyl-N-(2-(morpholin-3-yl)pyridin-4-yl)-5-(trifluoromethyl)-tetrahydrofuran-2-carboxamide] | 10 to 100 nM | 
5 | COc1c([C@H]2[C@H](C(=O)Nc3ncco3)O[C@@](C)(C(F)(F)F)[C@H]2C)ccc(F)c1F [Compound 196, (2R,3S,4S,5R)-3-(3,4-difluoro-2-methoxyphenyl)-4,5-dimethyl-N-(oxazol-2-yl)-5-(trifluoromethyl)tetrahydrofuran-2-carboxamide] | < 10 nM | 
6 | Cc1nocc1NC(=O)[C@@H]1O[C@@](C)(C(F)(F)F)[C@@H](C)[C@H]1c1ccc(F)c(F)c1OCCN1CC(OC(F)F)C1 [Compound 628, (2R,3S,4S,5R)-3-(2-(2-(3-(difluoromethoxy)azetidin-1-yl)ethoxy)-3,4-difluorophenyl)-4,5-dimethyl-N-(3-methylisoxazol-4-yl)-5-(trifluoromethyl)tetrahydrofuran-2-carboxamide] | 10 to 100 nM | 
7 | CNC(=O)CN(C)c1cc(NC(=O)[C@@H]2O[C@@](C)(C(F)(F)F)[C@@H](C)[C@H]2c2ccc(F)c(F)c2OC)ccn1 [Compound 487, (2R,3S,4S,5R)-3-(3,4-difluoro-2-methoxyphenyl)-4,5-dimethyl-N-(2-(methyl(2-(methylamino)-2-oxoethyl)amino)pyridin-4-yl)-5-(trifluoromethyl)tetrahydrofuran-2-carboxamide] | < 10 nM | 
8 | COc1c([C@H]2[C@H](C(=O)NC3CS(=O)(=O)C3)O[C@@](C)(C(F)(F)F)[C@H]2C)ccc(F)c1F [Compound 309, (2R,3S,4S,5R)-3-(3,4-difluoro-2-methoxyphenyl)-N-(1,1-dioxidothietan-3-yl)-4,5-dimethyl-5-(trifluoromethyl)tetrahydrofuran-2-carboxamide] | ≥ 1000 nM | 
9 | COc1c(C2C(C(=O)Nc3cc(CO)ncc3C)OC(C)(C(F)(F)F)C2C)ccc(F)c1F (stereo not shown) [Compound 243, 3-(3,4-difluoro-2-methoxy-phenyl)-N-[2-(hydroxymethyl)-5-methyl-4-pyridyl]-4,5-dimethyl-5-(trifluoromethyl)tetrahydrofuran-2-carboxamide] |  | 10 to 100 nM
10 | COc1c(C2C(C(=O)Nc3ccncn3)OC(C)(C(F)(F)F)C2C)ccc(F)c1F (single isomer, unassigned) [Compound 36, 3-(3,4-difluoro-2-methoxy-phenyl)-4,5-dimethyl-N-pyrimidin-4-yl-5-(trifluoromethyl)tetrahydrofuran-2-carboxamide] | < 10 nM | 
11 | C[C@@H](CO)COc1c([C@H]2[C@H](C(=O)Nc3ccc(C(N)=O)nc3)O[C@@](C)(C(F)(F)F)[C@H]2C)ccc(F)c1F [Compound 616, 5-((2R,3S,4S,5R)-3-(3,4-difluoro-2-((S)-3-hydroxy-2-methylpropoxy)phenyl)-4,5-dimethyl-5-(trifluoromethyl)tetrahydrofuran-2-carboxamido)picolinamide] | 100 to 1000 nM | 
12 | C[C@@H]1[C@H](c2ccc(F)c(F)c2OC(F)F)[C@@H](C(=O)Nc2cc(S(C)(=O)=O)ccn2)O[C@]1(C)C(F)(F)F (single isomer, unassigned) [Compound 71] | ≥ 1000 nM | 
13 | COc1c([C@H]2[C@H](C(=O)Nc3ccc(C(C)(O)CF)nc3)O[C@@](C)(C(F)(F)F)[C@H]2C)ccc(F)c1F (single isomer, unassigned) [Compound 224, rel-(2R*,3S*,4S*,5R*)-3-(3,4-difluoro-2-methoxyphenyl)-N-(6-(1-fluoro-2-hydroxypropan-2-yl)pyridin-3-yl)-4,5-dimethyl-5-(trifluoromethyl)tetrahydrofuran-2-carboxamide] | 100 to 1000 nM | 
14 | COc1c([C@H]2[C@H](C(=O)Nc3cnc4n3CCCC4)O[C@@](C)(C(F)(F)F)[C@H]2C)ccc(F)c1F [Compound 317, (2R,3S,4S,5R)-3-(3,4-difluoro-2-methoxyphenyl)-4,5-dimethyl-N-(5,6,7,8-tetrahydroimidazo[1,2-a]pyridin-3-yl)-5-(trifluoromethyl)-tetrahydrofuran-2-carboxamide] | 100 to 1000 nM | 
15 | COc1c([C@H]2[C@H](C(=O)Nc3ccc(C(F)F)nc3)O[C@@](C)(C(F)(F)F)[C@H]2C)ccc(F)c1C(F)F (single isomer, unassigned) [Compound 165] | 10 to 100 nM | 
16 | C[C@H]1[C@@H](c2ccc(F)c(F)c2OCC2CC(F)(F)C2)[C@H](C(=O)Nc2ccnc(CO)c2)O[C@@]1(C)C(F)(F)F [Compound 644, (2R,3S,4S,5R)-3-(2-((3,3-difluorocyclobutyl)methoxy)-3,4-difluorophenyl)-N-(2-(hydroxymethyl)pyridin-4-yl)-4,5-dimethyl-5-(trifluoromethyl)tetrahydrofuran-2-carboxamide] | 10 to 100 nM | 
17 | COc1c([C@H]2[C@H](C(=O)Nc3cc(C(N)C(C)(C)O)ncc3F)O[C@@](C)(C(F)(F)F)[C@H]2C)ccc(F)c1F (single isomer, unassigned) [Compound 428, rel-(2R*,3S*,4S*,5R*)-N-(2-(1-amino-2-hydroxy-2-methylpropyl)-5-fluoropyridin-4-yl)-3-(3,4-difluoro-2-methoxyphenyl)-4,5-dimethyl-5-(trifluoromethyl)-tetrahydrofuran-2-carboxamide] | < 10 nM | 
18 | COCCCOc1c([C@H]2[C@H](C(=O)Nc3ccnc(CO)c3)O[C@@](C)(C(F)(F)F)[C@H]2C)ccc(F)c1F [Compound 642, (2R,3S,4S,5R)-3-(3,4-difluoro-2-(3-methoxypropoxy)phenyl)-N-(2-(hydroxymethyl)pyridin-4-yl)-4,5-dimethyl-5-(trifluoromethyl)tetrahydrofuran-2-carboxamide] | < 10 nM | 
19 | COc1c([C@H]2[C@H](C(=O)Nc3ccc(-c4ccn(C)n4)nc3)O[C@@](C)(C(F)(F)F)[C@H]2C)ccc(F)c1F [Compound 400, (2R,3S,4S,5R)-3-(3,4-difluoro-2-methoxyphenyl)-4,5-dimethyl-N-(6-(1-methyl-1H-pyrazol-3-yl)pyridin-3-yl)-5-(trifluoromethyl)-tetrahydrofuran-2-carboxamide] | 100 to 1000 nM | 
20 | COc1c([C@H]2[C@H](C(=O)Nc3cncc(S(=O)(=O)N(C)C)c3)O[C@@](C)(C(F)(F)F)[C@H]2C)ccc(F)c1F (stereo in doubt) [Compound 453, rel-(2R,3S,4S,5R)-3-(3,4-difluoro-2-methoxyphenyl)-N-(5-(N,N-dimethylsulfamoyl)pyridin-3-yl)-4,5-dimethyl-5-(trifluoromethyl)tetrahydrofuran-2-carboxamide] | 10 to 100 nM | 
21 | C[C@H]1[C@@H](c2ccc(F)c(F)c2OC(F)F)[C@H](C(=O)Nc2ccnc(N3CCN(C)CC3=O)c2)O[C@@]1(C)C(F)(F)F [Compound 516, (2R,3S,4S,5R)-3-[2-(difluoromethoxy)-3,4-difluoro-phenyl]-4,5-dimethyl-N-[2-(4-methyl-2-oxo-piperazin-1-yl)-4-pyridyl]-5-(trifluoromethyl)tetrahydrofuran-2-carboxamide] | < 10 nM | 
22 | COc1c([C@H]2[C@H](C(=O)Nc3ccc(-c4cnco4)nc3)O[C@@](C)(C(F)(F)F)[C@H]2C)ccc(F)c1F [Compound 394, (2R,3S,4S,5R)-3-(3,4-difluoro-2-methoxyphenyl)-4,5-dimethyl-N-(6-(oxazol-5-yl)pyridin-3-yl)-5-(trifluoromethyl)-tetrahydrofuran-2-carboxamide] | 100 to 1000 nM | 
23 | COc1c([C@H]2[C@H](C(=O)Nc3ccnc(O[C@@H]4COC[C@@H]4O)c3)O[C@@](C)(C(F)(F)F)[C@H]2C)ccc(F)c1F (single isomer, unassigned) [Compound 239, rel-(2R*,3S*,4S*,5R*)-3-(3,4-difluoro-2-methoxyphenyl)-N-(2-(((3R,4S)-4-hydroxytetrahydrofuran-3-yl)oxy)pyridin-4-yl)-4,5-dimethyl-5-(trifluoromethyl)tetrahydrofuran-2-carboxamide] | < 10 nM | 
24 | COc1c([C@@H]2[C@@H](C(=O)Nc3ccnc(S(C)(=N)=O)c3)O[C@](C)(C(F)(F)F)[C@@H]2C)ccc(F)c1C (relative stereo) [Compound 150, rel-(2S,3R,4R,5S)-3-(4-fluoro-2-methoxy-3-methylphenyl)-4,5-dimethyl-N-(2-(S-methylsulfonimidoyl)pyridin-4-yl)-5-(trifluoromethyl)tetrahydrofuran-2-carboxamide] | 100 to 1000 nM | 
25 | COc1c([C@H]2[C@H](C(=O)Nc3ccnc([S+](C)[O-])c3)O[C@@](C)(C(F)(F)F)[C@H]2C)ccc(F)c1F (single isomer, unassigned) [Compound 8] | < 10 nM | 
